Assays:
Type in all cases: functional, cell-based
[1] = test system: MDA-MB-435; test: Cytotoxicity against human MDA-MB-435 cells assessed as inhibition of cell viability incubated for 72 hrs by CellTiter-blue cell viability assay; settings: MDA-MB-435, 72 h
[2] = test system: HT-29; test: Cytotoxicity against human HT-29 cells assessed as inhibition of cell viability incubated for 72 hrs by CellTiter-blue cell viability assay; settings: HT-29, 72 h
[3] = test system: MDA-MB-231; test: Cytotoxicity against human MDA-MB-231 cells assessed as inhibition of cell viability incubated for 72 hrs by CellTiter-blue cell viability assay; settings: MDA-MB-231, 72 h
[4] = test system: OVCAR-3; test: Cytotoxicity against human OVCAR-3 cells assessed as inhibition of cell viability incubated for 72 hrs by CellTiter-blue cell viability assay; settings: OVCAR-3, 72 h

Compound | IC50 [1] [nM] | IC50 [2] [nM] | IC50 [3] [nM] | IC50 [4] [nM]
COC(=O)[C@H]1[C@@H](O)[C@@]2(O)c3c(OC)cc(O[C@@H]4O[C@@H]([C@H](O)CO)CO[C@@H]4OC)cc3O[C@@]2(c2ccc(OC)cc2)[C@@H]1c1ccccc1 | 250 | 370 | 240 | 210
COC(=O)[C@H]1[C@@H](O)[C@@]2(O)c3c(OC)cc(O[C@@H]4O[C@@H]([C@@H](O)CO)CO[C@@H]4OC)cc3O[C@@]2(c2ccc(OC)cc2)[C@@H]1c1ccccc1 | 250 | 450 | 210 | 210
COC(=O)[C@H]1[C@@H](O)[C@@]2(O)c3c(OC)cc(O[C@@H]4O[C@@H]([C@H]5COC(C)(C)O5)CO[C@H]4OC)cc3O[C@@]2(c2ccc(OC)cc2)[C@@H]1c1ccccc1 | 31 | 20 | 260 | 37
COC(=O)[C@H]1[C@@H](O)[C@@]2(O)c3c(OC)cc(O[C@@H]4O[C@@H]([C@@H]5COC(C)(C)O5)CO[C@H]4OC)cc3O[C@@]2(c2ccc(OC)cc2)[C@@H]1c1ccccc1 | 26 | 37 | 20 | 38
COC(=O)[C@H]1[C@@H](O)[C@@]2(O)c3c(OC)cc(O[C@@H]4O[C@@H]([C@@H](O)CO)CO[C@H]4OC)cc3O[C@@]2(c2ccc(OC)cc2)[C@@H]1c1ccccc1 [2'-EPISILVESTROL] | 2 | 3 | 2 | 2
CC(=O)O[C@H]1C(=O)[C@@]2(C)[C@H]([C@H](OC(=O)c3ccccc3)[C@]3(O)C[C@H](OC(=O)[C@H](O)[C@@H](NC(=O)c4ccccc4)c4ccccc4)C(C)=C1C3(C)C)[C@]1(OC(C)=O)CO[C@@H]1C[C@@H]2O [PACLITAXEL] | 5 |  |  | 12
COC(=O)[C@H]1[C@@H](O)[C@@]2(O)c3c(OC)cc(O[C@@H]4O[C@@H]([C@H](O)CO)CO[C@H]4OC)cc3O[C@@]2(c2ccc(OC)cc2)[C@@H]1c1ccccc1 [SILVESTROL] | 2 | 30 | 2 | 2
